Values of other authors in US20040112375A1, “Predicting outcome of hyperbaric oxygen therapy treatment with nitric oxide bioavailability” (priority 2002, published 2004).

Row | Molecule | fall of plasma isoprostane levels (diabetic men, 600 mg twice daily for seven days) [%] | effect on isoprostane levels in biological fluids (in vivo)
1 | 2-(2,3-dihydro-5-acetoxy-4,6,7-trimethylbenzofuranyl) acetic acid [raxofelast] | 50 | 
2 | Cc1c(C)c2c(c(C)c1O)CC[C@@](C)(CCC[C@H](C)CCC[C@H](C)CCCC(C)C)O2 [alpha tocopherol] |  | reduce such isoprostane levels
